Laboratory results: patent US20050226821A1, “Cosmetic formulations containing l-arginine oligomers” (priority 2002, published 2005)

Assays:
human subjects = assay: Topical lip color and contour enhancement, image analysis of lip area after lip gloss application; assay type: in vivo; conditions: mean across 1, 5, 10, 15 and 30 minutes after application, Revlon Lip Gloss base
Protocol: A preparation of (L-arg)-(L-arg)-(L-arg)-(L-arg)-(L-arg)-(L-arg)-(L-arg)-(L-arg)-(L-arg) or [LR9] was obtained from Sigma Genosys at >70% purity. […], a 1× stock of LR9 for lip enhancement was prepared as 35 mg in 50 μl pbs, which was added to 2.0 ml of Revlon Lip Gloss base for the following groups: • LR9 • Control (base only)
After addition of LR9 to lip gloss base, samples were mixed to homogeneity and stored at room temperature overnight. After baseline image acquisition using a Minolta Dimage 7 digital camera set to 105 macro (1:1) with standard lighting and scaling conditions, human subjects underwent topical application of LR9 or control gloss. All participants were blinded with respect to treatment or control application. Additional digital micrographs were acquired at time 0, 1, 5, 10, 15, and 30 minutes after lip gloss application. The gloss was then removed and participants asked to record duration of any lip contour or color changes. Additionally, any complications (irritation, etc) were also tracked for each. Each subject was treated at different timepoints with both groups (treatment or control). Image analysis of total photographic area was performed for each group, with care taken to normalize each to scales included at the time of photograph acquisition. Baseline images (pre-application) were verified to have statistically similar values between pre-LR9 gloss and pre-base gloss applications for each participant. Mean and standard error across timepoints 1, 5, 10, 15, and 30 minutes were determined for each participant after LR9-gloss or base gloss application. Values for each as well as photos acquired at matching timepoints are presented by participant below for 3 participants. [drawing]

C57 black six mice = assay: Topical enhancement of hair growth after depilation, daily application for 14 days; assay type: in vivo; set-up: key to Hair Shaft Length, Comparison anova (95) vs. control / Follicle Area, Comparison anova (95) vs. control / Number of follicles per cross-section, Comparison anova (95) vs. control: **: significant by fisher PLSD and Scheffe F-test (P = 0.0001)
Protocol: A preparation of (L-arg)-(L-arg)-(L-arg)-(L-arg)-(L-arg)-(L-arg)-(L-arg)-(L-arg)-(L-arg) or [LR9] was obtained from Sigma Genosys at >70% purity. To achieve a therapeutic benefit on hair growth, a 10× stock of LR9 was prepared as 70 mg in 80 μl PBS. To 0.2 ml of Cetaphil moisturizer base was added the following: • LR9: 20 μl of 10× LR9 stock • Control: 20 μl PBS
After addition of LR9/PBS to moisturizer base, samples were mixed to homogeneity and stored at 4C overnight. C57 black six mice at 8 weeks of age were anesthetized with 3% isoflurane by inhalation, were shaved, and underwent depilation at mid-scapular dorsal region of 2 cm×2 cm with a rosin mixture (Surgiwax, Ardell, Commerce, Calif.) to induce the synchronized adolescent first hair cycle. Moisturizer was applied daily at 0.2 cc per day for either LR9 treatment or control for a fourteen day period at n=4 per group. After 14 days application the treated skin segment was harvested en bloc and subdivided into three equal portions: a cranial portion, a left lateral portion and a right lateral portion. The cranial portion and the left lateral portion were fixed in 10% neutral buffered formalin for 12-16 hours, then rinsed in 70% ethanol and embedded in paraffin. The right lateral portion was snap frozen in OCT medium at the time of harvest and stored at −35C until use.
Paraffin-embedded specimens were sectioned at 4-6 microns, deparaffinized, and stained with a combination of Verhoeff elastica stain and the Masson trichrome stain for morphological assessment of follicle area and number. Frozen samples underwent random hair pulls to determine hair shaft length. All procedures and analyses were performed by blinded observers. […] Images were analyzed using Image Pro Plus software (Media Cybernetics, Silver Spring, Md.) to determine total cross-sectional follicle area, follicle number, or hair length. Mean and standard error were assessed using Statview (Abacus Concepts, Berkeley, Calif.), with comparisons made using ANOVA repeated measures and significance determined at 95% with post-hoc testing using Fisher PLSD or Scheffe F-test.

(L-arg)-(L-arg)-(L-arg)-(L-arg)-(L-arg)-(L-arg)-(L-arg)-(L-arg)-(L-arg) [LR9]
Mean Area (human subjects; first of 3 participants): 7.745 sq. in.
Mean Area (human subjects; second of 3 participants): 7.411 sq. in.
Mean Area (human subjects; third of 3 participants): 7.911 sq. in.
Number of follicles per cross-section, Mean (C57 black six mice; 14 days topical): 406.417
Hair Shaft Length, Mean (C57 black six mice; 14 days topical, 0.2 cc per day in Cetaphil moisturizer base, n=4, 1 pixel = 2.774 microns): 1612.424 pixels
Follicle Area (by total x-sectional area), Mean (C57 black six mice; 14 days topical, 1 square pixel = 7.69 square microns): 53546.00 square pixels
Follicle Area, Comparison anova (95) vs. control (C57 black six mice; 14 days, LR9 vs. control): **
Hair Shaft Length, Comparison anova (95) vs. control (C57 black six mice; 14 days, LR9 vs. control): **
Number of follicles per cross-section, Comparison anova (95) vs. control (C57 black six mice; 14 days, LR9 vs. control): **
Hair growth as measured by hair shaft length, total follicle area, and number of hair follicles (C57 black six mice; without any additional transdermal delivery platform): statistically significantly enhance hair growth
